Assay results taken from US10729768B2, “Combination of anti-CD20 antibody and PI3 kinase selective inhibitor” (TG Therapeutics, Inc., priority 2012, dated 2020).

Assays:
[1] = tested on: Raji Cells; test: cell cycle assay, flow cytometry; format: cell-based
Description: (§1) A cell cycle assay reagent (Millipore) was used to determine the effect of S-isomer of a compound of formula A, UBX, and combinations thereof on the cell cycle in cancerous cells. […] The cells were transferred to microfuge tubes to receive 50 μl of cell cycle reagent and incubated for 30 minutes at RT away from light. Cells were then diluted with 300-400 μl PBS, and a minimum of 10,000 events were acquired on a Guava® easyCyte™ flow cytometer. The data was analyzed with Express Pro software and the percentage of the cell population in different cell cycle stages with respect to control was presented in histograms.

[2] = tested on: DB Cells; test: cell cycle assay, flow cytometry; format: cell-based; settings: DB cells
Description: as §1

[3] = tested on: CD19-positive cells; test: B cell depletion from human whole blood (HWB), flow cytometry, CD19; format: cell-based; settings: 1 μM, 24 hrs
Description: (§2) A flow cytometry assay was used to compare the ability of S-isomer of compound of formula A, Ublituximab (Ubx), and combinations thereof to deplete B cells from human whole blood (HWB). In this assay, 50 μl of HWB sample was treated with either S-isomer of a compound of formula A (1000 nM), UBX (100 μg/ml to 0.1 μg/ml), or UBX in combination with S-isomer of a compound of formula A at 1000 nM and incubated for 24 hrs at 37° C. and 5% CO2. 20 μl of treated sample was taken in a 1.5 ml centrifuge tube and labeled with CD45 FITC and CD19 PE or CD20 FITC antibody and incubated in the dark for 1 hour at RT. 1 ml of red blood cell (RBC) lysing solution was added, and tubes were centrifuged at 3000 rpm for 10 minutes. […] The tubes were vortexed, and 5000 events were acquired on a Guava® easyCyte™ flow cytometer and analyzed with Incyte Software.
(§3) Gated population of CD45-positive cells were further analyzed for CD19. The number of cells that were positive for CD45 and CD19 was calculated, and the data was expressed as the percentage of CD19 positive cells in the population. CD20-positive populations were gated with fluorescence positive minus unlabeled cells, and the data was expressed as the percentage of CD20-positive cells in the population. The loss of CD19/CD20 population from control was calculated and expressed as % depletion with respect to control.

[4] = tested on: Daudi, RPMI-8226, Raji, and U266B1 cells; test: in situ caspase-3 kit, apoptosis (Example 3), cell lines tested; format: cell-based; settings: 1 μM, cell lines, 24 hrs
Description: In order to determine the effect of S-isomer of a compound of formula A, UBX, and combinations thereof on apoptosis in cancer cells, an in situ caspase-3 kit (Millipore) was used. Cells were plated in a 6 well plate at a concentration of 0.5×10^6 cells/ml, treated with either S-isomer of a compound of formula A (1000 nM), UBX (100 μg/ml to 0.1 μg/ml), or UBX with S-isomer of a compound of formula A at 1000 nM, and incubated for 24 hrs at 37° C. and 5% CO2. The cells were then transferred to microfuge tubes to receive 10 μl of freshly prepared FLICA™ reagent and incubated for 1 hour at 37° C. and 5% CO2 away from light. After extensive washes with wash buffer, test samples were adjusted to equalize the number of cells in PBS. 100 μl of each cell suspension was transferred to black 96-well plates in duplicates, and the fluorescence was read at an excitation wavelength of 490 nm and an emission wavelength of 520 nm in a plate reader. The fluorescence intensity for a DMSO control was subtracted from that of test compounds. Data was expressed as a percent of the maximum response (100%) and plotted accordingly.

[5] = tested on: CD19+ B-cell; test: LPS-induced proliferation in HWB, flow cytometry, CD19; format: cell-based, human; settings: Homo sapiens, B-cell, 1 μM, 72 hrs
Description: Flow cytometry was used to study the effect of S-isomer of a compound of formula A, Ubx, and combinations thereof on LPS-induced proliferation of CD19 and CD20 cells in HWB. In these experiments, 250 μl of diluted (1:3.5 with RPMI-HG Media) HWB sample was treated with either S-isomer of a compound of formula A (10 μM to 0.1 μM), UBX (100 μg/ml to 0.1 μg/ml) or UBX with S-isomer of a compound of formula A at 1000 nM for 15 minutes followed by 20 μg/ml LPS induction and incubated for 72 hrs at 37° C. and 5% CO2. 20 μl of treated sample was taken in a 1.5 ml centrifuge tube and labeled with CD20 FITC and CD19 PE antibody and incubated in the dark for 1 hour at RT. 1 ml of RBC lysing solution was added and tubes were centrifuged at 3000 rpm for 10 minutes. Supernatant was aspirated, and 250 μl of PBS was added to the pellet. Tubes were vortexed, and 5000 events were acquired on a Guava® easyCyte™ flow cytometer and analyzed with Incyte Software.
Gated population of lymphocytes positive cells were further analyzed for CD19 and CD20. Cells positive for CD19 and/or CD20 were calculated, and data were expressed as the percentage positive cells in the population. The loss of positive population from control with LPS induction was calculated and expressed as % inhibition with respect to control.

[6] = tested on: CD20-positive cells; test: B cell depletion from human whole blood (HWB), flow cytometry, CD20; format: cell-based; settings: 1 μM, 24 hrs
Description: as §2, §3

CC(C)Oc1ccc(-c2nn([C@@H](C)c3oc4ccc(F)cc4c(=O)c3-c3cccc(F)c3)c3ncnc(N)c23)cc1F [S-isomer, (S)-2-(1-(4-amino-3-(3-fluoro-4-isopropoxyphenyl)-1H-pyrazolo[3,4-d]pyrimidin-1-yl)ethyl)-6-fluoro-3-(3-fluorophenyl)-4H-chromen-4-one]
G0/G1, percentage of the cell population ([1]; 72 h, 0.1 nM): 56.54 | G2/M, percentage of the cell population ([1]; 72 h, 0.1 nM): 33.63 | S, percentage of the cell population ([1]; 72 h, 0.1 nM): 8.38 | Sub G0, percentage of the cell population ([1]; 72 h, 0.1 nM): 1.32 | G0/G1, percentage of the cell population ([1]; 72 h, 1 nM): 56.93 | G2/M, percentage of the cell population ([1]; 72 h, 1 nM): 34.13 | S, percentage of the cell population ([1]; 72 h, 1 nM): 5.51 | Sub G0, percentage of the cell population ([1]; 72 h, 1 nM): 1.89 | G0/G1, percentage of the cell population ([1]; 72 h, 10 nM): 55.96 | G2/M, percentage of the cell population ([1]; 72 h, 10 nM): 34.81 | S, percentage of the cell population ([1]; 72 h, 10 nM): 5.80 | Sub G0, percentage of the cell population ([1]; 72 h, 10 nM): 1.06 | G0/G1, percentage of the cell population ([1]; 72 h, 100 nM): 52.81 | G2/M, percentage of the cell population ([1]; 72 h, 100 nM): 37.80 | S, percentage of the cell population ([1]; 72 h, 100 nM): 6.72 | Sub G0, percentage of the cell population ([1]; 72 h, 100 nM): 1.04 | G0/G1, percentage of the cell population ([1]; 72 h, 1000 nM): 52.04 | G2/M, percentage of the cell population ([1]; 72 h, 1000 nM): 41.21 | S, percentage of the cell population ([1]; 72 h, 1000 nM): 3.92 | Sub G0, percentage of the cell population ([1]; 72 h, 1000 nM): 1.29 | G0/G1, percentage of the cell population ([1]; 72 h, 10,000 nM): 10.12 | G2/M, percentage of the cell population ([1]; 72 h, 10,000 nM): 58.09 | S, percentage of the cell population ([1]; 72 h, 10,000 nM): 23.17 | Sub G0, percentage of the cell population ([1]; 72 h, 10,000 nM): 4.90 | G0/G1, percentage of the cell population ([2]; 72 h, 0.1 nM): 54.37 | G2/M, percentage of the cell population ([2]; 72 h, 0.1 nM): 39.41 | S, percentage of the cell population ([2]; 72 h, 0.1 nM): 4.84 | Sub G0, percentage of the cell population ([2]; 72 h, 0.1 nM): 0.84 | G0/G1, percentage of the cell population ([2]; 72 h, 1 nM): 50.61 | G2/M, percentage of the cell population ([2]; 72 h, 1 nM): 41.44 | S, percentage of the cell population ([2]; 72 h, 1 nM): 6.53 | Sub G0, percentage of the cell population ([2]; 72 h, 1 nM): 0.54 | G0/G1, percentage of the cell population ([2]; 72 h, 10 nM): 47.22 | G2/M, percentage of the cell population ([2]; 72 h, 10 nM): 46.85 | S, percentage of the cell population ([2]; 72 h, 10 nM): 4.98 | Sub G0, percentage of the cell population ([2]; 72 h, 10 nM): 0.55 | G0/G1, percentage of the cell population ([2]; 72 h, 100 nM): 41.21 | G2/M, percentage of the cell population ([2]; 72 h, 100 nM): 50.22 | S, percentage of the cell population ([2]; 72 h, 100 nM): 6.96 | Sub G0, percentage of the cell population ([2]; 72 h, 100 nM): 0.43 | G0/G1, percentage of the cell population ([2]; 72 h, 1000 nM): 0.75 | G2/M, percentage of the cell population ([2]; 72 h, 1000 nM): 92.79 | S, percentage of the cell population ([2]; 72 h, 1000 nM): 0.42 | Sub G0, percentage of the cell population ([2]; 72 h, 1000 nM): 5.36 | G0/G1, percentage of the cell population ([2]; 72 h, 10,000 nM): 1.40 | G2/M, percentage of the cell population ([2]; 72 h, 10,000 nM): 94.87 | S, percentage of the cell population ([2]; 72 h, 10,000 nM): 0.89 | Sub G0, percentage of the cell population ([2]; 72 h, 10,000 nM): 2.06 | reduction in CD19-positive HWB B-cells [3]: not observed | Caspase-3 activity increase [4]: 40-75% | inhibition at 1 µM [5]: ~60% | reduction in CD20-positive HWB B-cells [6]: not observed
